AC50 data for seven compounds are collected here from ChEMBL document CHEMBL5291721, “A preclinical secondary pharmacology resource illuminates target-adverse drug reaction associations of marketed drugs” (Nat Commun, 2023).

Some results are limits rather than exact numbers.

The target of assay [1] is Sodium-dependent noradrenaline transporter (Homo sapiens, UniProt P23975).
Assay [2] has as its target Bile salt export pump (Homo sapiens, UniProt O95342). The format is functional.
The target in assay [3] is 5-hydroxytryptamine receptor 2B (Homo sapiens, UniProt P41595). The format is functional, cell-based.
5-hydroxytryptamine receptor 2B, sequence (P41595 whole entry): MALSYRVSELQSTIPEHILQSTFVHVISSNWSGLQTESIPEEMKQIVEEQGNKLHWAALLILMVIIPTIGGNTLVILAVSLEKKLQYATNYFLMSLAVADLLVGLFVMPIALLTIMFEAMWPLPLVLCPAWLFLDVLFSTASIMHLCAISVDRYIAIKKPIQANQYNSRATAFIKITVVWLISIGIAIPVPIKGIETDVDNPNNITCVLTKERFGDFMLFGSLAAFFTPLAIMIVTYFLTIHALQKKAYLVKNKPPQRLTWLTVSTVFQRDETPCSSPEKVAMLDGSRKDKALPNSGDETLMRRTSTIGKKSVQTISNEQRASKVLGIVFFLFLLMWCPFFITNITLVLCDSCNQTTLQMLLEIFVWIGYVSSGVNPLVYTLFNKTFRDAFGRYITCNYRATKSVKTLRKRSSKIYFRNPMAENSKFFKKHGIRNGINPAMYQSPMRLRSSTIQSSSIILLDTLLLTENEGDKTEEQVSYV
The target in assay [4] is Voltage-gated inwardly rectifying potassium channel KCNH2 (Homo sapiens, UniProt Q12809). It counts as functional. The conditions noted are these: read-out: AC50.
Voltage-gated inwardly rectifying potassium channel KCNH2, sequence (Q12809 whole entry): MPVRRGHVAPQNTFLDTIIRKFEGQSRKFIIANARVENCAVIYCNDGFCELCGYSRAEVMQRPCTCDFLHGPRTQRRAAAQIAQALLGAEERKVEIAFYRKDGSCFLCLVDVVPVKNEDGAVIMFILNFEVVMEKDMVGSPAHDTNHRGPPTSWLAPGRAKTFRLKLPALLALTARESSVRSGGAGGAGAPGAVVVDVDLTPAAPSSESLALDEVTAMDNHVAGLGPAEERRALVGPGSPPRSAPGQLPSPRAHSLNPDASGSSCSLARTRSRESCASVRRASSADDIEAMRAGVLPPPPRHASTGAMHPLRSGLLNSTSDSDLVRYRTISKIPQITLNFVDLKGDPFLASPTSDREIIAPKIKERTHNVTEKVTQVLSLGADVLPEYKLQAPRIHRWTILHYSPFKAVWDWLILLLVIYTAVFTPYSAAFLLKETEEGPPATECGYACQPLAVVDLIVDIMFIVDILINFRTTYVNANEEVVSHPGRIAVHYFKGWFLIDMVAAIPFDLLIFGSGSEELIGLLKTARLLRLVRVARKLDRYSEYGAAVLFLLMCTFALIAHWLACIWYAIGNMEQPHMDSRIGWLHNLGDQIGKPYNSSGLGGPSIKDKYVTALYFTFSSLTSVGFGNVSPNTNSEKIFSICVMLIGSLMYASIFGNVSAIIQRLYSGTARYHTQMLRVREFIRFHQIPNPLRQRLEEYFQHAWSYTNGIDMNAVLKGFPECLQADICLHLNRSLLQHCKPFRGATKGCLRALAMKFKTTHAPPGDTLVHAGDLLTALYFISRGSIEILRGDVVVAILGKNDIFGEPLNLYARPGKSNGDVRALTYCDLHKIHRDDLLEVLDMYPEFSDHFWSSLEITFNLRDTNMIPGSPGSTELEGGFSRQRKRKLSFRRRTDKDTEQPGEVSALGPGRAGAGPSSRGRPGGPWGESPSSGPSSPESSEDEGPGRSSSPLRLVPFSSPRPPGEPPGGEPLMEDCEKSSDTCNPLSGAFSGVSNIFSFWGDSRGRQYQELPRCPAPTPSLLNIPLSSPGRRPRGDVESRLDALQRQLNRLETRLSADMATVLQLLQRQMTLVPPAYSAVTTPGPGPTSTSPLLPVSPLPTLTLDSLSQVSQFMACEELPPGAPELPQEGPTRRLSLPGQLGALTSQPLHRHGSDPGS
Assay [5] addresses Adenosine receptor A2a (Homo sapiens, UniProt P29274).
The target in assay [6] is D(3) dopamine receptor (Homo sapiens, UniProt P35462).
Assay [7] concerns the target Neuronal acetylcholine receptor subunit alpha-4 (Homo sapiens, UniProt P43681).
The target of assay [8] is Beta-1 adrenergic receptor (Homo sapiens, UniProt P08588). The format is functional.
Beta-1 adrenergic receptor, sequence (P08588 whole entry): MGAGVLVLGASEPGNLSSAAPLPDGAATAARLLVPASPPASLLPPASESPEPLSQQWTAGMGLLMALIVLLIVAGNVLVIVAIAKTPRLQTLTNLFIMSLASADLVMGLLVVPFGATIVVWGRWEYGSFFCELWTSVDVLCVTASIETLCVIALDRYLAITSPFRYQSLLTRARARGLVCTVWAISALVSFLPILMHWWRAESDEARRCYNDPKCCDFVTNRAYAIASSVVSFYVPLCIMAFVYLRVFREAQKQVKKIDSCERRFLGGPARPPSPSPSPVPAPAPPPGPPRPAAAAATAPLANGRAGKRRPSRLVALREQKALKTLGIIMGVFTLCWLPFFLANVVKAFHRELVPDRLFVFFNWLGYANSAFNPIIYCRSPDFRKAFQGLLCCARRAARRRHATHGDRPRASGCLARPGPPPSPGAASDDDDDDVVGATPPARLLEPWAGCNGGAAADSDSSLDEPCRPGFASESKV
The target of assay [9] is T1, Muscarinic acetylcholine receptor M2 (Homo sapiens, UniProt P08172).
T1 sequence (P08172 whole entry): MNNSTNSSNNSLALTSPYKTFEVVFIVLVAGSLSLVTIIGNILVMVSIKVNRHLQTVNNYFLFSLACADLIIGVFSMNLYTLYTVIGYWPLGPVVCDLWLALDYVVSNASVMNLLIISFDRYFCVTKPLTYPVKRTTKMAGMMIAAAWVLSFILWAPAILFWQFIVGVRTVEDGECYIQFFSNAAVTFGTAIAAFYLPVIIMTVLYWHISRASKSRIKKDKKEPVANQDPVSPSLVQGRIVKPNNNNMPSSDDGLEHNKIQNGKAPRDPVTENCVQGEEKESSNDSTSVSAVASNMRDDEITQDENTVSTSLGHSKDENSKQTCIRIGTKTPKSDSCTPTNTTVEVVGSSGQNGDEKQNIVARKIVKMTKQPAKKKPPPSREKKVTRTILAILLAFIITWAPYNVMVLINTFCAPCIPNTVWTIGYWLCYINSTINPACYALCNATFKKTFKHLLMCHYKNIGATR
It counts as functional, cell-based.

Assay [10] deals with T2, Alpha-2C adrenergic receptor (Homo sapiens, UniProt P18825).
T2 sequence (P18825 whole entry): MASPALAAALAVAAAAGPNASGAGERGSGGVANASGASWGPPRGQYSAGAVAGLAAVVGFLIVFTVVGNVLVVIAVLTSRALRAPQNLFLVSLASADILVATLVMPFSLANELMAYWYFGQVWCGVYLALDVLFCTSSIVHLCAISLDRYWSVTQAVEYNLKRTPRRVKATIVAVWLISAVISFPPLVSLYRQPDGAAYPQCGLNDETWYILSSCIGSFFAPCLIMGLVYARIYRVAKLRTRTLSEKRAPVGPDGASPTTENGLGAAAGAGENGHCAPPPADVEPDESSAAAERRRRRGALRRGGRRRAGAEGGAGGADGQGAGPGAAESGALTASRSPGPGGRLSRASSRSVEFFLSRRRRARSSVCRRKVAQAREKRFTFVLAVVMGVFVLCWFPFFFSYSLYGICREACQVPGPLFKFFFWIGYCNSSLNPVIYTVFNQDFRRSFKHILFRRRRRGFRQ
The format is functional.

In assay [11] the target is Motilin receptor (Homo sapiens, UniProt O43193).
Assay [12] concerns the target Sodium-dependent dopamine transporter (Homo sapiens, UniProt Q01959).
The target in assay [13] is T3, Adenosine receptor A1 (Homo sapiens, UniProt P30542).
T3 sequence (P30542 whole entry): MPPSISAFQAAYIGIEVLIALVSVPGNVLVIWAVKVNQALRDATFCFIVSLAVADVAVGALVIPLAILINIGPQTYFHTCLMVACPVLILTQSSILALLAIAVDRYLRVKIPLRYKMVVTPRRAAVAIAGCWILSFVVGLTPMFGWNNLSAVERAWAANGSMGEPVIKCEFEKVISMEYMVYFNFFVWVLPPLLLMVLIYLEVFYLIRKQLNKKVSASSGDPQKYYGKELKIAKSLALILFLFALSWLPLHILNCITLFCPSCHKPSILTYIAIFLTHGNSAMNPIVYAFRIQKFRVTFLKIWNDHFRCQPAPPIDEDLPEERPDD

Assay [14] addresses T4, Cholecystokinin receptor type A (Homo sapiens, UniProt P32238).
T4 sequence (P32238 whole entry): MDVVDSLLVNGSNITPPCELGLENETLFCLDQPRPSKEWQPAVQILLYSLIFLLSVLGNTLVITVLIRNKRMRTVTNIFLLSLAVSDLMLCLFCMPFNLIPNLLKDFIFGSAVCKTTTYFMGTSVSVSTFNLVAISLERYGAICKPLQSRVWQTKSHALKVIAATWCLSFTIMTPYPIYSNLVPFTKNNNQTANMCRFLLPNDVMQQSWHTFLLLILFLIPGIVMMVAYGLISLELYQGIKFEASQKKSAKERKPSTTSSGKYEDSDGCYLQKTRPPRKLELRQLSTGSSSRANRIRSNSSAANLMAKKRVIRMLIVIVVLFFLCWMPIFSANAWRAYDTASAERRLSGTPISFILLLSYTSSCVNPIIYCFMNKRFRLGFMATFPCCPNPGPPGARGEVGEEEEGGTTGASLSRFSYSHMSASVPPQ

Assay [15] has as its target Melanocortin receptor 3 (Homo sapiens, UniProt P41968).
Assay [16] addresses T5, Alpha-2A adrenergic receptor (Homo sapiens, UniProt P08913).
T5 sequence (P08913 whole entry): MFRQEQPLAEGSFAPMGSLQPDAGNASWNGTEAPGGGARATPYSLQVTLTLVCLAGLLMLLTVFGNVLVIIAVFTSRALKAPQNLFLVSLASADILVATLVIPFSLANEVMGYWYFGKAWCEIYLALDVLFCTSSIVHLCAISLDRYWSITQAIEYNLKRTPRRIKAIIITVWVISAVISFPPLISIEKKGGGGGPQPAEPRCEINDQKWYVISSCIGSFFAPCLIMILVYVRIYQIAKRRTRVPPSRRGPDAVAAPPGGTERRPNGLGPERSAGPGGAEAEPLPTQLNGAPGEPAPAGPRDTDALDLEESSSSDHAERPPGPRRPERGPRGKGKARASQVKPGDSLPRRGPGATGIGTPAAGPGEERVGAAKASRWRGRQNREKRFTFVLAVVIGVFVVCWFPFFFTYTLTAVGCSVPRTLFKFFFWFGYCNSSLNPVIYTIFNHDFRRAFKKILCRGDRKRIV
The format is functional, cell-based.

For assay [17], the target named is T5, Alpha-2A adrenergic receptor. It counts as functional, cell-based. The source holds these as a separate data set.
Further: assay procedure not described here.

Neuronal acetylcholine receptor subunit alpha-4, sequence (P43681 whole entry): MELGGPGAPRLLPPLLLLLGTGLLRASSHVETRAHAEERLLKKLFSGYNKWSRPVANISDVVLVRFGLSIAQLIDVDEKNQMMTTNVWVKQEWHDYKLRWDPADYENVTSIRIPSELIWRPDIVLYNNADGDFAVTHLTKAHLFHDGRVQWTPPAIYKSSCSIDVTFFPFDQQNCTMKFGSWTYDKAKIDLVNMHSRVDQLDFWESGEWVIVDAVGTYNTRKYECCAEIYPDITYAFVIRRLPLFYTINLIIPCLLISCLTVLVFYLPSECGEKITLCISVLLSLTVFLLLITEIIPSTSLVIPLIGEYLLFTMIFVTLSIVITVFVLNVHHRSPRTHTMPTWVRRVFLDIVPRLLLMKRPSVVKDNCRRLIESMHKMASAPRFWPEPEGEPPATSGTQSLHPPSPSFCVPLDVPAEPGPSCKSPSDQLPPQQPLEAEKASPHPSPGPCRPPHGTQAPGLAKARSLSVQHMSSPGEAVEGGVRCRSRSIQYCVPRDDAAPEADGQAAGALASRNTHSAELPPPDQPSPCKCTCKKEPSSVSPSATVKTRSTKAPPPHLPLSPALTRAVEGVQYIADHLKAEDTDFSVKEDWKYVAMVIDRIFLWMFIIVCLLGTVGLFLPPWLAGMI
Melanocortin receptor 3, sequence (P41968 whole entry): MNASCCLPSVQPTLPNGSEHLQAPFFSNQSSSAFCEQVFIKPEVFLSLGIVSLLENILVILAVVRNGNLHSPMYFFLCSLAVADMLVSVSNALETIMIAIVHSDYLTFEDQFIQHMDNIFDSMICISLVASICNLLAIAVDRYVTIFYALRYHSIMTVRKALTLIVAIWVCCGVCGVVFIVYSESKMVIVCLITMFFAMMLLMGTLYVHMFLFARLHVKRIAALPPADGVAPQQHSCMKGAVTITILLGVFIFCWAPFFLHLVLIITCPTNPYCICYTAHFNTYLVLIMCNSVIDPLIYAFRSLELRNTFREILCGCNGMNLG
Sodium-dependent noradrenaline transporter, sequence (P23975 whole entry): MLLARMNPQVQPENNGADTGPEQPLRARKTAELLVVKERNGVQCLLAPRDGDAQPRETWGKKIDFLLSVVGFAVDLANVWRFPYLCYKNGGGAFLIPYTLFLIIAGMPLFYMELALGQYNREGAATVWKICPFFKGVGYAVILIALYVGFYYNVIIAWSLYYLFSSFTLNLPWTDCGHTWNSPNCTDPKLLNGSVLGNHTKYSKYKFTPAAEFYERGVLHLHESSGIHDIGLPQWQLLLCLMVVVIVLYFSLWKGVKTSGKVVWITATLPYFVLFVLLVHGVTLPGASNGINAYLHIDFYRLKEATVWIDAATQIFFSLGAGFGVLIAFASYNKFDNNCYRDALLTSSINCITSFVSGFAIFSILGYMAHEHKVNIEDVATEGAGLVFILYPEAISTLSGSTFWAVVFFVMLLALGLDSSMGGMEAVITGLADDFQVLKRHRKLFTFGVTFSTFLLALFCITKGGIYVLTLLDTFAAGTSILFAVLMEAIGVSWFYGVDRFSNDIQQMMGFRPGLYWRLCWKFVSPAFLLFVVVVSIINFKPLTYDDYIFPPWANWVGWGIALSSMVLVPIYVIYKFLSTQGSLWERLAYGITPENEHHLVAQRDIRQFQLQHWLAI
Adenosine receptor A2a, sequence (P29274 whole entry): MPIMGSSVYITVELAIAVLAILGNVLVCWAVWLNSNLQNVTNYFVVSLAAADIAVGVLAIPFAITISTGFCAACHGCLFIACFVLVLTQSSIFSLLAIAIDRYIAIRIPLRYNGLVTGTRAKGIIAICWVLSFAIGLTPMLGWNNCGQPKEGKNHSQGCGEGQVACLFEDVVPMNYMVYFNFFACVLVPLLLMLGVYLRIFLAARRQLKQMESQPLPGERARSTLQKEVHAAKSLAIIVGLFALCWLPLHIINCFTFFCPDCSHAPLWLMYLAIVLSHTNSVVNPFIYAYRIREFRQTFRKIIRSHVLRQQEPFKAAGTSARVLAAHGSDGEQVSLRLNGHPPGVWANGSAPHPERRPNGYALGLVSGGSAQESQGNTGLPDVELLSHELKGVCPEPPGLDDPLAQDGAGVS
Sodium-dependent dopamine transporter, sequence (Q01959 whole entry): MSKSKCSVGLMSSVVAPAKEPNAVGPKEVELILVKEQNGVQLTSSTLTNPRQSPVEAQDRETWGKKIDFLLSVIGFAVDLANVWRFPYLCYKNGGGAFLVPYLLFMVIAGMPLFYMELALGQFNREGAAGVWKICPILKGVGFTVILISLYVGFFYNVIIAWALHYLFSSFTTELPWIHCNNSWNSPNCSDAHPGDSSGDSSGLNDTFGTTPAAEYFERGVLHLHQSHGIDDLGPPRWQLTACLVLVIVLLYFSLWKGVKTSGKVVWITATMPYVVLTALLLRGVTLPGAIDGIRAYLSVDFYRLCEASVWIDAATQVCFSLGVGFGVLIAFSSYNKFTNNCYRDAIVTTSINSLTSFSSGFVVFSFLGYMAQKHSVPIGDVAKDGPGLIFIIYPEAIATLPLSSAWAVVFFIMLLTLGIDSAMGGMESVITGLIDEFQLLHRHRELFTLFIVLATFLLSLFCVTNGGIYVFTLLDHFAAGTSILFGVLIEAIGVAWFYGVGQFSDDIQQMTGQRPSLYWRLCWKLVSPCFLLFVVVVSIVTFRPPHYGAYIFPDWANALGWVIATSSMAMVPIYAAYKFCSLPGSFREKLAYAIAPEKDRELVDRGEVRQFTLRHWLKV

As usually defined, the AC50 is the concentration giving half of the maximal activity seen. With `CN(C)CCC=C1c2ccccc2C(C)(C)c2ccccc21`, the AC50 in assay [1] was 1.05 µM; in [2], 130 µM; in assay [3] it was above 30 µM; in assay [4], 4.13 µM; in assay [5], above 30 µM; in [6], 1.89 µM. In addition, the AC50 in [7] was above 1 µM; in [8], 5.2 µM; in assay [9] it was above 10 µM; in assay [10] it was 9.67 µM; in [11] it was 14 µM; in assay [12], above 30 µM. Also, the AC50 in assay [13] was above 30 µM; in [14] it was above 30 µM; in assay [15] it was 21 µM; in [16], 6.7 µM; in assay [17], above 30 µM.
On to `C[C@@H](O)[C@H]1C(=O)N2C(C(=O)O)=C(S[C@@H]3CN[C@H](C(=O)N(C)C)C3)[C@H](C)[C@H]12` [MEROPENEM], for which the AC50 in assay [1] is above 300 µM; in [2], above 300 µM; in [3], above 300 µM; in [4], above 30 µM; in assay [5], above 300 µM; in assay [6], above 300 µM. Moreover, the AC50 in assay [7], in assay [8], in [9], in assay [10], in assay [11] and in [12] was above 300 µM each time. Also, the AC50 in assay [13], in assay [14], in assay [15], in assay [16] and in assay [17] was above 300 µM throughout.
Regarding `COCCCN1CCC(NC(=O)c2cc(Cl)c(N)c3c2OCC3)CC1` [PRUCALOPRIDE], the AC50 in assay [1] was above 30 µM; in [2], above 300 µM; in assay [3] it was above 30 µM; in assay [4], above 30 µM; in assay [5], above 30 µM; in [6], above 30 µM. Moreover, the AC50 in assay [7] was above 30 µM; in assay [8], above 30 µM; in assay [9], above 30 µM; in assay [10] it was 14 µM; in assay [11], above 30 µM; in assay [12], above 30 µM. In addition, the AC50 in [13], in [14], in assay [15], in assay [16] and in assay [17] was above 30 µM throughout.
Turning to `C[C@]12CCC(=O)C=C1CC[C@@H]1[C@@H]2[C@@H](O)C[C@@]2(C)[C@H]1CC[C@]2(O)C(=O)CO` [HYDROCORTISONE], the AC50 is above 10 µM in assay [1]; above 300 µM in assay [2]; above 10 µM in [3]; above 30 µM in assay [4]; above 30 µM in assay [5]; above 10 µM in [6]. Moreover, the AC50 in [7], in [8], in [9], in assay [10], in assay [11] and in [12] was above 10 µM throughout. In addition, the AC50 in [13] is above 30 µM; in [14], above 30 µM; in assay [15], above 30 µM; in assay [16], above 10 µM; in assay [17] it was above 10 µM.
`CN(C)/N=N/c1[nH]cnc1C(N)=O` [DACARBAZINE]: the AC50 in [1] is above 10 µM; in assay [2] it was above 300 µM; in assay [3] it was above 10 µM; in [4], above 30 µM; in assay [5], above 10 µM; in [6] it was above 30 µM. The AC50 in assay [7], in assay [8], in assay [9], in assay [10], in [11] and in assay [12] was above 10 µM throughout. Moreover, the AC50 in assay [13], in [14], in assay [15], in assay [16] and in assay [17] was above 10 µM throughout.
Consider `COc1ccc(CC(C)(C)NC[C@H](O)c2cc(O)cc3c2OCC(=O)N3)cc1` [OLODATEROL], for which the AC50 in assay [1] was above 30 µM; in [2] it was above 300 µM; in assay [3], above 30 µM; in assay [4], 6.3 µM; in assay [5] it was above 30 µM; in [6] it was above 30 µM. Also, the AC50 in assay [7] is above 30 µM; in assay [8] it was 0.58 µM; in assay [9], above 30 µM; in [10], above 30 µM; in assay [11], above 30 µM; in [12], 11 µM. In addition, the AC50 in assay [13] was above 30 µM; in assay [14], above 30 µM; in assay [15], above 30 µM; in assay [16] it was 10 µM; in assay [17] it was above 30 µM.
On to `CCCCN1C[C@H](O)[C@@H](O)[C@H](O)[C@H]1CO`, for which the AC50 in [1] was above 30 µM; in assay [2] it was above 300 µM; in assay [3], above 30 µM; in assay [4], above 30 µM; in assay [5], above 30 µM; in [6], above 30 µM. For the same compound, the AC50 in assay [7], in assay [8], in [9], in [10], in [11] and in [12] was above 30 µM throughout. Moreover, the AC50 in assay [13], in [14], in assay [15], in assay [16] and in assay [17] was above 30 µM in each case.
